Tests used:
L. lactis strain CS4616m [1] = experiment: Measurement of intracellular NADH and NAD+ (NAD+/NADH-Glo Assay); format: cell-based, Lactococcus lactis subsp. cremoris
Method: L. lactis cell culture harvested in the mid-exponential growth phase (OD600 nm=0.6) was frozen in liquid nitrogen and stored at −20° C. Extraction and quantification of NADH and NAD^+ were performed using the kit NAD^+/NADH-Glo™ Assay (Promega) according to the instructions. Intracellular NADH and NAD^+ concentrations were estimated by assuming that 1 g (dry weight) of cells corresponded to 1.67 ml of intracellular volume and the cell density of 1 OD600 nm corresponds to 0.35 g/I dry cell mass.
In the L. lactis respiration chain (FIG. 2A), electrons are transferred from NADH dehydrogenase (NoxAB), menaquinone to Cyt bd oxidase in the presence of hemin. The observed growth and NADH/NAD+ ratio of genetically engineered strain CS4616m induced by hemin is consistent with the theory that NADH generated by the glycolysis pathway can be replenished through respiration and that suitable hemin activators can be used to fine-tune respiration and restore cell growth in this strain.

L. lactis strain CS4616m [2] = experiment: Respiration-dependent aerobic growth of L. lactis strain CS4616m at different hemin concentrations; format: cell-based, Lactococcus lactis subsp. cremoris
Method: L. lactis were grown aerobically at 30° C. in rich M17 broth (Terzaghi et al., 1975) supplemented with 2% (w/v) glucose and different concentrations of hemin in shaken 250 ml conical flasks. When required, antibiotics were added in the following concentrations: erythromycin: 200 μg/ml for E. coli and 5 μg/ml for L. lactis, tetracycline: 8 μg/ml for E. coli and 5 μg/ml for L. lactis, chloramphenicol: 20 μg/ml for E. coli and 5 μg/ml for L. lactis.
However, growth of the L. lactis strain was restored under aerobic conditions when hemin was present (FIG. 2B). The specific growth rate and final biomass density (OD600 nm) of the L. lactis strain increased in response to hemin concentrations of above 0.2 μg/ml, where a growth rate of 0.8 h^−1 and cell density of OD600 nm 8.5 was measured using a growth medium comprising 2% glucose, hemin levels were 1 μg/ml or above.

L. lactis strain CS4616m [3] = experiment: Inhibition of growth of CS4616m culture by metal ions or diacetyl; format: cell-based, Lactococcus lactis subsp. cremoris
Method: FIG. 5. Inhibitory effect of diacetyl on growth of L. lactis CS4616m. (A) Graphical presentation of cell growth of L. Lactis strain CS4616m, as measured by cell density (OD600 nm), in the presence of diacetyl (0-10 mM), which was added when the culture reached a cell density (OD600 nm) of 0.6. (B) Graphical presentation of cell growth of L. Lactis strain CS4616m, as measured by cell density (OD600 nm), and substrate/product profile in the presence of 10 mM Fe^3+ (added in the beginning of growth phase).
The observed high yields of diacetyl by cells of the L. lactis strain CS4616m are achieved by the addition of metal ions to the cells after they have reached the desired cell biomass. […] The final biomass of a culture grown in the presence of 10 mM Fe^3+ was only 3.3 (OD600 nm) (FIG. 5B) compared to 8.5 (OD600 nm) in the absence of a Fe^3+ supplement (FIG. 5A). […] In summary, for optimal diacetyl production, L. lactis strain CS4616m should be cultivated under aerobic conditions in the presence of a carbon source, e.g. glucose, in the presence of hemin until a sufficient biomass has been reached, followed by the addition of metal ions, preferably Fe^3+ or Cu^2+), and maintaining the aerobic conditions, in order for the accumulated acetolactate to be converted into diacetyl with high yield. The observed increase in diacetyl production by cells of the L. lactis strain CS4616m in response to Fe^3+, Fe^2+ and Cu^2+ is consistent with the finding that these metal ions serve as accelerators of the non-enzymatic oxidative decarboxylation flux from acetolactate to diacetyl. Optionally, once a sufficient biomass of the genetically modified Lactococcus lactis has been obtained following cultivation in the presence of a source of protoporphyrin IX or iron-containing porphyrin (e.g. hemin), the conversion of accumulated acetolactate can be accelerated by elevating the temperature of the culture or culture medium, for example to 60-65 degrees centigrade.

L. lactis strain CS4616m [4] = experiment: Metal ion enhancement of diacetyl production from acetolactate in stationary-phase CS4616m culture; set-up: species or system Lactococcus lactis subsp. cremoris
Method: Graphical presentation of diacetyl formation from acetolactate as a function of time (hr) when L. lactis strain CS4616m is cultured in the presence of increasing levels of either Fe^3+ (B); Fe^2+ (C); and Cu^2+ (D). The time point for adding the metal catalysts during the cultivation of L. Lactis strain CS4616m was at 9.8 h, which is indicated by the straight line in (A). Experiments were conducted in duplicate and error bars indicate standard deviations.
Glucose, lactate, and ethanol were detected and quantitated using the Ultimate 3000 high-pressure liquid chromatography system (Dionex, Sunnyvale, USA) equipped with a Aminex HPX-87H column (Bio-Rad, Hercules, USA) and a Shodex RI-101 detector (Showa Denko K.K., Tokyo, Japan). Pyruvate was detected and quantitated using the DAD-3000 diode array detector (Dionex, Sunnyvale, USA). The column oven temperature was set at 60° C. with a mobile phase of 5 mM H2SO4, and the flow rate was 0.5 ml/min. Acetoin and α-acetolactate were measured colorimetrically based on Westerfeld et al. (1945). Diacetyl concentration was determined as described by Benson et al (1996).
When the cells entered the stationary phase, different concentrations of these metal catalysts were added to the cultivation medium. […] The yield and productivity for diacetyl production was as high as 0.87 mol mol^−1 glucose and 0.58 g/L·h based on 4 h data.

[5] = aerobic, growth medium 2% glucose, hemin 1 μg/ml or above
[6] = 10 or 20 mM, present in growth medium from the beginning of the growth phase

Q: How did the “NADH/NAD+ ratio” value (L. lactis strain CS4616m [1]; 0.3 μg/ml hemin) turn out when hemin was run?
A: 0.07

Q: And the “intracellular NAD+ concentration” value (L. lactis strain CS4616m [1]; 0.3 μg/ml hemin)?
A: 0.25 mM

Q: What about the “NADH/NAD+ ratio” value (L. lactis strain CS4616m [1]; 1 μg/ml hemin) of the same molecule?
A: 0.03

Q: What about the “intracellular NAD+ concentration” value (L. lactis strain CS4616m [1]; 1 μg/ml hemin) of the same molecule?
A: 0.47 mM

Q: What about the cell density (L. lactis strain CS4616m [2]; [5]) of the same molecule?
A: 8.5 OD600 nm

Q: What about the growth rate (L. lactis strain CS4616m [2]; [5]) of the same molecule?
A: 0.8 h⁻¹

Q: What about the “effect on cell growth” value (L. lactis strain CS4616m [2]; elevated hemin, circa 10 μg/ml or above (data not shown)) of the same molecule?
A: significant negative effect on cell growth

Q: What about the “final cell biomass and NADH/NAD+ ratio” value (L. lactis strain CS4616m [2]; hemin above 1 μg/ml (e.g. 5 μg/ml)) of the same molecule?
A: did not further increase

Q: What about the “growth of the strain under aerobic conditions” value (L. lactis strain CS4616m [2]; hemin present) of the same molecule?
A: restored

Q: For `[Fe+3]` [Fe^3+], which final biomass (L. lactis strain CS4616m [3]; 10 mM Fe^3+ from beginning of growth, 8.5 without Fe^3+ supplement) is on record?
A: 3.3 OD600 nm

Q: What about the cell growth (L. lactis strain CS4616m [3]; [6]) of the same molecule?
A: inhibited growth

Q: What about the diacetyl concentration (L. lactis strain CS4616m [4]; 20 mM Fe^2+ added at stationary phase, after 4 h) of the same molecule?
A: 78 mM

Q: What about the diacetyl concentration (L. lactis strain CS4616m [4]; 30 mM Fe^3+ added at stationary phase, after 2 h, 108 mM glucose) of the same molecule?
A: 85 mM

Q: And the diacetyl concentration (L. lactis strain CS4616m [4]; 30 mM Fe^3+ added at stationary phase, after 4 h, 108 mM glucose)?
A: 95 mM

Q: What about the “productivity for diacetyl production” value (L. lactis strain CS4616m [4]; 30 mM Fe^3+, based on 4 h data) of the same molecule?
A: 0.58 g/L·h

Q: And the “yield for diacetyl production” value (L. lactis strain CS4616m [4]; 30 mM Fe^3+, based on 4 h data)?
A: 0.87 mol mol^−1 glucose

Q: Which results are given for `[Cu+2]` [Cu^2+]?
A: cell growth (L. lactis strain CS4616m [3]; [6]): inhibited growth; cell growth (L. lactis strain CS4616m [3]; metal ion added during the growth phase): totally abolished cell growth; diacetyl concentration (L. lactis strain CS4616m [4]; 30 mM Cu^2+ added at stationary phase, after 1 h): 78 mM; productivity for diacetyl production (L. lactis strain CS4616m [4]; 30 mM Cu^2+, after 1 h): 0.619 g/L·h

Q: How did the cell growth (L. lactis strain CS4616m [3]; diacetyl (0-10 mM) added at OD600 nm of 0.6) turn out when `CC(=O)C(C)=O` [diacetyl] was run?
A: inhibit cell growth
